In ChEMBL document CHEMBL5365551, “Fragment-Based NMR Screening of the BPTF PHD Finger Methyl Lysine Reader Leads to the First Small-Molecule Inhibitors” (ACS Med Chem Lett, 2023):
The source made the active and inactive calls. The calls are words filed in the database; no cut-off is given here.

Legend:
[1] = molecular target: T1, Nucleosome-remodeling factor subunit BPTF (Homo sapiens, UniProt Q12830); assay: Binding affinity to N-terminal His9 tagged human BPTF isoform 2 PHD (2722 to 2781 residues) expressed in Escherichia coli BL21 Star (DE3) at 400 uM by SPR assay
[2] = molecular target: T1, Nucleosome-remodeling factor subunit BPTF; assay: Binding affinity to N-terminal His9 tagged human BPTF isoform 2 PHD (2722 to 2781 residues) expressed in Escherichia coli BL21 Star (DE3) assessed as reduction in proton resonance intensity at 100 uM by 1H CPMG NMR assay relative to control; set-up: scale not given: the % may be the effect or the level left
[3] = molecular target: Lysine-specific demethylase 5A (Homo sapiens) (UniProt P29375); assay: Binding affinity to N-terminal His-tagged human KDM5A PHD3 (1486 to 1690 residues) expressed in Escherichia coli BL21 Star (DE3) assessed as reduction in proton resonance intensity at 100 uM by 1H CPMG NMR assay relative to control; set-up: scale not given: the % may be the effect or the level left
Lysine-specific demethylase 5A (Homo sapiens), sequence (P29375 whole entry, the tested form may be a part, canonical isoform): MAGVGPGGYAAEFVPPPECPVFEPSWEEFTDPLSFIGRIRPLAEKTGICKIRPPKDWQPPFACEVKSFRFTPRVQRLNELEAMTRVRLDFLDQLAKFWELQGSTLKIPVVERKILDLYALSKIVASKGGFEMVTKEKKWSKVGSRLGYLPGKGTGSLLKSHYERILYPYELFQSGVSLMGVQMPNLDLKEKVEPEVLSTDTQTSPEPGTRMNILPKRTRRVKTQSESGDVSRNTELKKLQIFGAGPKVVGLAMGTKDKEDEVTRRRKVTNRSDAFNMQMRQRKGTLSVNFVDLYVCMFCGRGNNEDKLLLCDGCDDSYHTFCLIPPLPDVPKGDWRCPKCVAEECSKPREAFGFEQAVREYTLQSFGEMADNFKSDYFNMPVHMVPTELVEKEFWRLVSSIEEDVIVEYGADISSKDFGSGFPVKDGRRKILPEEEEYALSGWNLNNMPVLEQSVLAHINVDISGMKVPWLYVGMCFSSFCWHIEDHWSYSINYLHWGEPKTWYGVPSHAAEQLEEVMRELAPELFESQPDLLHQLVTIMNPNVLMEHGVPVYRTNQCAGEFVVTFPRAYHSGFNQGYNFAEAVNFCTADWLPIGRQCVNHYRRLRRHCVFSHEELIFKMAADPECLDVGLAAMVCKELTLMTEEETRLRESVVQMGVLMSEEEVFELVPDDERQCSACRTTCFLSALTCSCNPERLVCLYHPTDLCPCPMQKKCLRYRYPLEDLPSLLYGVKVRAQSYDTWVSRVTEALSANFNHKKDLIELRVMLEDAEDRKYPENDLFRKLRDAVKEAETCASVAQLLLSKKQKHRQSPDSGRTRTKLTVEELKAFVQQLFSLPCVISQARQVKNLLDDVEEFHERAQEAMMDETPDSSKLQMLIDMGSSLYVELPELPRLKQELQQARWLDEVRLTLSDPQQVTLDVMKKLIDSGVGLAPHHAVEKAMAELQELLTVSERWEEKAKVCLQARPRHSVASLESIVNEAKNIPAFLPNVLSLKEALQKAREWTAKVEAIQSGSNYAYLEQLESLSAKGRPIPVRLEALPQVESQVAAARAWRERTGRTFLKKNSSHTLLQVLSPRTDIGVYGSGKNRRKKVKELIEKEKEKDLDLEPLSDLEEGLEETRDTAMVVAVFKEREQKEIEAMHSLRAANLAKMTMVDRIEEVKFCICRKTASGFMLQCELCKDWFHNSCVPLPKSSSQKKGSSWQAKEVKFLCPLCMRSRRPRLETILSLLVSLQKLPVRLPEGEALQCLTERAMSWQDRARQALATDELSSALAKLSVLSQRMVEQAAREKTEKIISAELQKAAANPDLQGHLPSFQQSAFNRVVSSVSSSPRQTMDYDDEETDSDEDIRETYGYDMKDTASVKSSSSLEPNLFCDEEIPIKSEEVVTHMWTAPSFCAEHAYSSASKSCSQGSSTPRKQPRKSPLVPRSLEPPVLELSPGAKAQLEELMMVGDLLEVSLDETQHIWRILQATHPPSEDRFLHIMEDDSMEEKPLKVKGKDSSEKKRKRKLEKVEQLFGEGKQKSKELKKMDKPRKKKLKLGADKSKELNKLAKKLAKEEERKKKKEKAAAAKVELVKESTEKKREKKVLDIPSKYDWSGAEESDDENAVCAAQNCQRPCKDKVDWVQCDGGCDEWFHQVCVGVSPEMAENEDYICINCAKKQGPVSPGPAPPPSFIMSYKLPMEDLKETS

[4] = molecular target: T1, Nucleosome-remodeling factor subunit BPTF; assay: Inhibition of biotinylated-H3K4me2 binding to N-terminal His9 tagged human BPTF isoform 2 PHD (2722 to 2781 residues) expressed in Escherichia coli BL21 Star (DE3) at 2 mM measured after 1 hr by Alphascreen assay relative to control
[5] = molecular target: T1, Nucleosome-remodeling factor subunit BPTF; assay: Inhibition of biotinylated-H3K4me2 binding to N-terminal His9 tagged human BPTF isoform 2 PHD (2722 to 2781 residues) expressed in Escherichia coli BL21 Star (DE3) measured after 1 hr by Alphascreen assay
[6] = molecular target: T1, Nucleosome-remodeling factor subunit BPTF; assay: Binding affinity to N-terminal His9 tagged human BPTF isoform 2 PHD (2722 to 2781 residues) expressed in Escherichia coli BL21 Star (DE3) assessed as change in chemical shift perturbations at 1 mM by 1H,15N HSQC NMR spectroscopy

| SMILES | Activity [1] | Activity [2] | Activity [3] | IC50 ([5]; read-out: IC50) | other results |
| --- | --- | --- | --- | --- | --- |
| Cc1cccc(CSC2=NCCN2)c1 | Active | 50% | < 20% |  | inhibition [4]: 83% |
| Nc1c2c(nc3c1CCC3)CCCC2 [IPIDACRINE] | Active | 50% | < 20% | 590 µM |  |
| COC1CN(c2nc3ccccc3s2)C1 | Active | 30% | < 20% |  | inhibition [4]: 70% |
| Nc1ccnc2c1CCCC2 |  |  |  |  | inhibition [4]: 70% |
| c1ccc(Nc2ccc(N3CCNCC3)nn2)nc1 |  |  |  | 20 µM |  |
| Clc1ccc(N2CCNCC2)nn1 |  |  |  | 750 µM |  |
| NCC1CC(=O)N(c2ccc(F)c(F)c2)C1 (centres undefined) |  |  |  | 220 µM |  |
| c1ccc2nc(N3CCOCC3)ccc2c1 | inactive | 35% | < 20% |  |  |
| Cc1ccc(Nc2ccc(N3CCNCC3)nn2)nc1 |  |  |  | 30 µM |  |
| O=C(CC12CC3CC(CC(C3)C1)C2)N1CCCC1 | inactive | 25% | > 20% | 500 µM |  |
| Cc1ccc(Nc2ccc(Cl)nn2)cc1 |  |  |  |  | IC50 [5]: Not Determined(Insoluble) |
| N#Cc1c(N)sc2c1CCCC2 | inactive | 60% | > 20% | 130 µM | Activity [6]: Active |
| Cc1ccc(Nc2ccc(N3CCNCC3)nn2)cc1 | Active | 50% | < 20% | 300 µM | Activity [6]: inactive |
| N#Cc1c(N)sc2c1CCCCC2 |  |  |  | 63 µM |  |
| NCC1CCN(c2cccc(F)c2)C1 (centres undefined) | Active | 65% | < 20% | 380 µM | Activity [6]: Active |
| CC(=O)N1CCN(c2ccc(Nc3ccc(C)cc3)nn2)CC1 |  |  |  | 1200 µM |  |
| CCS(=O)(=O)N1CCN(c2ccc(Nc3ccc(C)cc3)nn2)CC1 |  |  |  |  | inhibition [4]: 78% |
| CC(=O)N1CCc2c(sc(N)c2C#N)C1 |  |  |  | 380 µM |  |
| Nc1c2c(nc3c1CCC3)CCC2 |  |  |  |  | inhibition [4]: 60% |
| Fc1ccc(Nc2ccc(N3CCNCC3)nn2)cc1 |  |  |  | 25 µM | Activity [6]: inactive |
| c1ccc(N2CC3CNCC3C2)cc1 (centres undefined) |  |  |  | 150 µM |  |
| Cn1nc2c(c1CNC(=O)c1ccc3c(c1)OCO3)CCC2 | inactive | 25% | < 20% |  | inhibition [4]: 71% |
| Cc1ccc(NC(=O)NCC(C)N2CCCC2)cc1 (centres undefined) |  | 35% | < 20% |  |  |
